# Where a name gives a salt, the structure may show the parent alone.
# Experiments:
# [1] = test system: stink bugs; experiment: Test for Confirmation of Stink Bug Behaviors against Active Ingredients 1, 2, 3 (treated filter paper); type: in vivo, southern green stink bugs
# Text: The test samples in “Test for Confirmation of Honeybee Repelling Effect 1” above were used.
# A liquid calcium carbonate/ethanol dispersion was applied on the entire interior wall of a KP cup (100 mm in diameter×90 mm in height) and air-dried, after which a filter paper (90 mm in diameter) was fixed on the bottom face of the KP cup using double-sided tape. A different filter paper (90 mm in diameter) was cut along its diameter and the resulting semicircle-shaped paper was uniformly treated with 400 μL of each test sample or sample for correction, and then placed over the filter paper fixed on the aforementioned bottom face of the KP cup by allowing the circular parts to overlap, for use as a testing device.
# The “repelling rate Y” and “corrected repelling rate Z” were calculated from the above “time A (sec)” and “time B (sec)” using the calculation formula below. For the “repelling rate of sample for correction” used to calculate the “corrected repelling rate Z,” the repelling rate of each of the samples for correction above (ethanol alone or water alone being a solvent for the active ingredient) was used.
# Corrected repelling rate Z (%)={Repelling rate of test sample−Repelling rate of sample for correction}/{100−Repelling rate of sample for correction}×100
# For the test samples, the test samples in “Test for Confirmation of Honeybee Repelling Effect 2” above were used.
# [2] = test system: honeybees; experiment: Test for Confirmation of Honeybee Repelling Effect 1, 2, 3 (feeding station with 40% sugar water); type: in vivo; conditions: for Corrected repelling rate (%) Honeybees: Test 3, 5 mL; for Corrected repelling rate R (%): honeybees
# Text: The following were used as the test samples for Examples: 2% by weight per volume ethanol solutions of octane (a-1), tetradecane (a-2), heptadecane (a-3), nonadecane (a-4), 2-acetylfuran (b-1), 5-methyl-2-furaldehyde (b-2), furfural (b-3), furaneol (c-1), 2-acetylpyrrole (d-1), 1-benzylpyrrole (d-2), 1-octanol (e-1), 1-dodecanol (e-2), and 1-octadecanol (e-3), respectively; and 2% by weight per volume aqueous solutions of furfuryl alcohol (b-4), sotolon (c-2), and α-angelicalactone (c-3), respectively.
# The following were used as the test samples for Comparative Examples: 2% by weight per volume ethanol solutions of eicosane (carbon number 20, p-1), heneicosane (carbon number 21, p-2), 2-methyloctane (branched alkane, p-3), tributyl o-acetylcitrate (p-4), and 1-methylpyrrole (p-5), respectively; and 2% by weight per volume aqueous solutions of 2-methyltetrahydrofuran-3-one (p-6) and acetic acid (p-7), respectively.
# Ethanol alone and water alone were used as samples for correction.
# The cotton pads 13 were impregnated with 40% sugar water (80 g), after which disposable wooden chopsticks 15 (80 mm in length) were placed over the cotton pads on the lid surface as “landing areas,” for use as “test insect (honeybee) feeding station 1” 10.
# A nest box of test insects (honeybees) (1 colony: approx. 6,000 bees) was placed at the center of a glass hothouse (bottom face: 5 m×10 m, height (highest part): 3 m, temperature: 25° C.), and the aforementioned “test insect (honeybee) feeding station 1” was installed at a location 2 meters away from the nest box.
# After confirming that at least five test insects (honeybees) were feeding at the above “test insect (honeybee) feeding station 1” installed in the hothouse, test 1 was conducted to measure the “approaching count (Mz)” and “landing count (My)” and calculate the “landing rate (Mx).”
# Next, the “test insect (honeybee) feeding station 1” installed in the hothouse was replaced with each “test insect (honeybee) feeding station 2” which was let to stand still for 5 minutes, after which test 2 was conducted to measure the “approaching count (Nz)” and “landing count (Ny)” and calculate the “landing rate (Nx).”
# Approaching count: Total number of times a honeybee has approached within 25 cm of the cotton wools at the feeding station during 5 minutes
# Landing count: Total number of honeybees that have remained for at least 1 second on the cotton pads at the feeding station during 5 minutes
# Landing rate (%): (Landing count/Approaching count)×100
# The “repelling rate Q” and “corrected repelling rate R” were calculated from the above “landing rates” using the calculation formula below. For the “repelling rate of sample for correction” used to calculate the “corrected repelling rate R,” the repelling rate of each of the samples for correction above (ethanol alone or water alone being a solvent for the active ingredient) was used.
# Repelling rate Q (%)={(Mx)−(Nx)}/(Mx)×100
# Corrected repelling rate R (%)={Repelling rate of test sample−Repelling rate of sample for correction}/{100−Repelling rate of sample for correction}×100
# The following were used as the test samples for Examples: 0.1% by weight per volume ethanol solutions of 3-methyl-2-butanol (e-4), carvacrol (x-1), isoeugenol (x-2), cinnamyl alcohol (x-3), diacetone alcohol (x-4), α-amylcinnamaldehyde (x-5), 3-methyl-2-butenal (x-6), valeraldehyde (x-7), ethyl cinnamate (x-8), methyl cinnamate (x-9), ethyl isovalerate (x-10), isoamyl formate (x-11), 5-ethyl-2-methylpyridine (x-12), 2-(3-phenylpropyl)pyridine (x-13), 2,6-dimethylpyridine (x-14), ß-ionone (x-15), 2-acetylthiazole (x-16), butylamine (x-17), and citronella oil (x-18), respectively; and a 0.1% by weight per volume aqueous solution of (3-amino-3-carboxypropyl)dimethylsulfonium chloride (x-19).
# [3] = Test 3, 0.1% by weight per volume solution, 400 μL
# [4] = 0.1% by weight per volume solution
# [5] = Test 2, 0.1% by weight per volume solution, 400 μL
# [6] = Test 2, 0.1% by weight per volume solution, 5 mL (active ingredient 5 mg)
Compound,repelling of stink bugs and other injurious insects to be exterminated (in words) [1],"Corrected repelling rate (%) Stinkbugs [1, 3]","Corrected repelling rate (%) Honeybees [2, 4] [%]",other results
"c1ccc2cnccc2c1 [y-79, isoquinoline]",not repelling stink bugs,∘,92.3,–
"COc1ccc(C=O)cc1 [y-4, anisaldehyde]",–,–,91.5,"Corrected repelling rate (%) Stinkbugs ([1]; 0.5 h, 0.1 % strength): x (“x” for rates “not <0”)"
"O=CC=Cc1ccccc1 [y-5, cinnamaldehyde]",not repelling stink bugs,∘,94.4,"honeybee repelling rate ([2]; Test 3, summary in text): ≥ 50%"
"Cc1cccc(C)n1 [x-14, 2,6-dimethylpyridine]",–,–,–,"Corrected repelling rate (%) Stinkbugs [1, 5]: <0%; Corrected repelling rate R (%) [2, 6]: 50.0%"
"CCOc1cc(C=O)ccc1O [y-6, ethyl vanillin]",–,–,60.3,"Corrected repelling rate (%) Stinkbugs ([1]; 0.5 h, 0.1 % strength): x (“x” for rates “not <0”)"
"COC(=O)C=Cc1ccccc1 [x-9, methyl cinnamate]",–,–,–,"Corrected repelling rate (%) Stinkbugs [1, 5]: <0%; Corrected repelling rate R (%) [2, 6]: 93.3%"
"CCCCCCCCCCCC(=O)OCCCC [y-37, butyl laurate]",–,∘,33.0,–
"CCC(=O)Oc1c(C)occc1=O [y-96, maltol propionate]",not repelling stink bugs,∘,57.5,–
"OCC=Cc1ccccc1 [x-3, cinnamyl alcohol]",–,–,–,"Corrected repelling rate (%) Stinkbugs [1, 5]: <0%; Corrected repelling rate R (%) [2, 6]: 98.2%"
"CC(=O)c1ccco1 [b-1, 2-acetylfuran]",–,–,–,"Corrected repelling rate (%) Stinkbugs ([1]; Test 1, 2% by weight per volume solution, 400 μL on filter paper, 30 minutes): <0%; Corrected repelling rate R (%) ([2]; Test 1, 2% by weight per volume solution, 5 mL sprayed (active ingredient 0.1 g)): 60.3%"
"CC(C)=CCC/C(C)=C/COC=O [y-28, geranyl formate]",not repelling stink bugs,∘,98.0,–
"CC1(C)C2CCC1(C)C(O)C2 (centres unmarked) [y-1, borneol]",not repelling stink bugs,∘,80.0,–
"COc1ccc(C(=O)O)cc1OC [y-75, 3,4-dimethoxybenzoic acid]",not repelling stink bugs,∘,70.6,–
"CC(C)=CCO [e-8, 3-methyl-2-buten-1-ol]",–,∘,30.4,–
"c1coc(Cn2cccc2)c1 [d-3, 1-furfurylpyrrole]",–,∘,25.4,–
"CCCCN [x-17, butylamine]",–,–,–,"Corrected repelling rate (%) Stinkbugs [1, 5]: <0%; Corrected repelling rate R (%) [2, 6]: 83.4%"
"CC(=O)OC/C=C(\C)CCC=C(C)C [y-27, geranyl acetate]",not repelling stink bugs,∘,68.0,–
"C1CCNC1 [y-91, pyrrolidine]",–,–,61.2,"Corrected repelling rate (%) Stinkbugs ([1]; 0.5 h, 0.1 % strength): x (“x” for rates “not <0”)"
"CCOC(=O)C=Cc1ccccc1 [x-8, ethyl cinnamate]",–,–,–,"Corrected repelling rate (%) Stinkbugs [1, 5]: <0%; Corrected repelling rate R (%) [2, 6]: 21.8%"
"CCCCC(CC)COC(=O)c1ccccc1O (centres unmarked) [y-22, 2-ethylhexyl salicylate]",–,∘,23.7,–
"CCCCCCCCCCCC(=O)OCC [y-41, ethyl laurate]",not repelling stink bugs,∘,59.6,–
"COc1cc(OC)cc(C(=O)O)c1 [y-76, 3,5-dimethoxybenzoic acid]",–,∘,22.1,–
"CCCCCCCC1CCCC(=O)O1 (centres unmarked) [y-65, δ-dodecalactone]",not repelling stink bugs,∘,86.6,–
